Biological target: T1, CblC (Homo sapiens, UniProt Q9Y4U1)
T1 sequence (Q9Y4U1 1-282): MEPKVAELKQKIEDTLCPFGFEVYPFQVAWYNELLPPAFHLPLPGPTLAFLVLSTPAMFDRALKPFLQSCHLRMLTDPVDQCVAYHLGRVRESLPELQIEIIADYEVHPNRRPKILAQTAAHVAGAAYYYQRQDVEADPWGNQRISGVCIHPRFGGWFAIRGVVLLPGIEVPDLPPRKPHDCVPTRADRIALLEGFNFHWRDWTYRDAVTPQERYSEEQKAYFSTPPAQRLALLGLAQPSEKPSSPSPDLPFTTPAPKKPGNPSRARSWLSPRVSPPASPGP
Experiment: isothermal titration calorimetry
Details: in the presence of glutathione (GSH); base-off binding

PhEtyCbl [compound 2]
Kd: 0.03 µM
